Active and inactive are the calls of the source. How the calls were made is not given here. Some results are limits rather than exact numbers.

This experiment deals with bacterial quorum sensing reporter inhibition. Put plainly: blockers of quorum-sensing reporter signal in bacteria – dose response (AID 700).
Consider `Cc1ccc(NC(=O)c2cc(C)on2)cc1`, for which the IC50 is > 20 µM (inactive).
For the compound `CC1(C)S[C@@H]2[C@H](NC(=O)[C@H](N)c3ccccc3)C(=O)N2[C@H]1C(=O)O`, the IC50 was > 20 µM (inactive).
As for `COc1ccc(-c2oc3ncn(CCN4CCOCC4)c(=N)c3c2-c2ccc(OC)cc2)cc1`, the IC50 was > 20 µM (inactive).
For the compound `CCOC(=O)C1=C(C)NC(C)=C(C(=O)OC)C1c1cccc(Cl)c1Cl` (stereo not given), the IC50 is > 20 µM (inactive).
In the case of `O=C(NCCN1CCN(c2ccccc2)CC1)c1cccn2c(=O)c3ccccc3nc12`, the IC50 is > 20 µM (inactive).
`Cc1ccc2[nH]c(=O)c(CN(CCCN(C)C)C(=O)Nc3ccc(Cl)cc3)cc2c1`: the IC50 is 9.03 µM.
With `Cc1cc(C)c2cc(CN(CCN3CCCC3)C(=O)Nc3ccc(F)cc3)c(=O)[nH]c2c1`, the IC50 is > 20 µM (inactive).
With `CCc1oc2ccccc2c1C(=O)c1cc(Br)c(O)c(Br)c1` the figure was 0.74 µM.
Regarding `Oc1ccc(-c2nc3ncccn3c2Nc2ccc3c(c2)OCCO3)cc1`, the IC50 is > 20 µM (inactive).
For the compound `Clc1ccc(OCc2nnc3n2N=C(c2ccc4c(c2)OCCO4)CS3)c(Cl)c1`, the IC50 was > 20 µM (inactive).

These data come from PubChem BioAssay AID700 (NMMLSC, 2007).
